# Where two headings read alike, the source gives them in different places.
# Assays:
# AChE [1] = details: read-out: IC50 of AChE inhibitory activities; cited from earlier work
# AChE [2] = system: AChE; parameters: method as in PMID 32118214; details: read-out: IC50 of AChE inhibitory activity; cited from earlier work
# [3] = system: scopolamine-treated amnesiac ICR mice; assay: Passive avoidance test in scopolamine-induced amnesiac ICR mice; details: scopolamine 1 mg/kg i.p.
# Procedure: The 6-week-old male ICR mice were from the Laboratory Animal Center, College of Medicine, National Taiwan University (Taipei, Taiwan). The Prolab® RMH2500 normal diets (LabDiet Co., St. Louis, MO, USA) and water were free access during the animal experiments. After one week of acclimation, the VT-95EE or VT-95EE-EA pre-treatments were used to evaluate preventive functions as follows. […] At the first stage, the extract (VT-95EE and VT-95EE-EA)-administered group, ICR mice were treated from day 1 to day 11 by a single oral administration daily by gavage. […] Except for the blank, each mouse in all groups was intraperitoneally injected with scopolamine (1 mg/kg) 30 min after the oral administration. Each mouse in the blank group was injected with an equal volume of PBS instead of scopolamine. Each mouse received a learning and memory evaluation by a passive avoidance test 30 min after scopolamine injection at day 13 to day 14. All mice were sacrificed in the end of animal experiments at day 15, and the brain tissue of mouse in each group was isolated, weighted, and stored at −80°C for further uses.
# The pre-treatment was used to evaluate preventive functions. […] At the first stage, the purified compound (vitisin A and vitisin B) administered group, ICR mice were treated from day 1 to day 9 by a single oral administration daily by gavage. […] Except for the blank, each mouse in all groups was intraperitoneally injected with scopolamine (1 mg/kg) 30 min after the oral administration. Each mouse in the blank group was injected with an equal volume of PBS instead of scoploamine. Each mouse received a learning and memory evaluation by a passive avoidance test 30 min after scopolamine injection at day 11 to day 12. All mice were sacrificed in the end of animal experiments at day 13, and the brain tissue of mice in each group was isolated, weighted, and stored at −80 °C for further uses.
# The apparatus for passive avoidance test is a shuttle chamber composed of a bright box and a dark box; the dark box could be closed by a manual guillotine door (AccuScan Instruments Inc, Columbus, OH, USA). The dark box contained a wired metal floor, through which the electric foot shocks were automatically delivered in the acquisition trial. The first day was the acquisition trial, and the second day was the retention trial. For the acquisition trial, each mouse was placed around the shuttle chamber to acclimatize to the environment; 30 min later, each mouse was transferred to the bright box to record the time in the bright box (the step-through latency, s).
# recombinant human AChE = target: T1, recombinant human AChE (Homo sapiens, UniProt P22303); assay: biochemical; details: calculated from linear equation of three concentrations; read-out: IC50 of AChE inhibition
# T1 construct: purchased R&D Systems Inc. (Minneapolis, MN)
# From the text: The synthetic acetylthiocholine iodide was used as substrates for in vitro AChE activity assays. […] The released thiocholine was reacted with DTNB to generate yellowish 5-thio-2-nitrobenzoate. […] The AChE inhibitory activities (%) were as following: [(A405blank − A405sample)/(A405blank)] × 100%.
# recombinant human MAO-B = target: T2, recombinant human MAO-B (Homo sapiens, UniProt P27338); assay: MAO-B inhibitory activities in vitro (kynuramine fluorescence); format: biochemical; details: calculated from linear equation of three concentrations; read-out: IC50 of MAO-B inhibition
# T2 construct: purchased Sigma Chemical Co. (St. Louis, MO, USA)
# T2 sequence (P27338 1-520): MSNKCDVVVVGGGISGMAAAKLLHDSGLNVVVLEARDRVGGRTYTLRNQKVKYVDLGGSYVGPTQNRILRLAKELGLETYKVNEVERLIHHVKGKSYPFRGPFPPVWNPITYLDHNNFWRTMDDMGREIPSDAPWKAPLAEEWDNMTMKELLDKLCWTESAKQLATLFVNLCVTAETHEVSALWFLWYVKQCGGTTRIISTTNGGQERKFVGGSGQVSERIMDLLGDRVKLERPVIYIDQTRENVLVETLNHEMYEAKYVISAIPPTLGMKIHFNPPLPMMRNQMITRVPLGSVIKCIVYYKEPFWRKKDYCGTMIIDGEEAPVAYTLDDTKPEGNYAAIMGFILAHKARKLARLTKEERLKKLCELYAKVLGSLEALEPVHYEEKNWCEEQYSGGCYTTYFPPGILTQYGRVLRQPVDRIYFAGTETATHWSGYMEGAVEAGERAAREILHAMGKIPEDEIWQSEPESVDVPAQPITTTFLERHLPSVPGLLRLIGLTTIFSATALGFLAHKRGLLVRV
# Procedure: The kynuramine was used as the MAO-B substrate to generate a fluorescent product, 4-hydroxyquinoline, which was used to screen MAO-B inhibitory activity assays. […] The MAO-B inhibition (%) was calculated as the following: [(Fblank − Fsample)/(Fblank)] × 100%. The IC50 of MAO-B activity was calculated from each linear equation from three used concentrations for MAO-B inhibitions.
# SH-SY5Y cells = assay: Neuroprotective activities against MGO-induced SH-SY5Y cell deaths (SRB cell viability); format: cell-based, human; details: then 500 μM MGO 24 h
# Procedure: The SH-SY5Y cells were cultured at 37 °C in the mixed medium of EMEM/F12 (1:1) and 10% FBS in the humidified atmosphere and 5% CO2. […] The treated SH-SY5Y cells were washed with PBS, and then the media without (the blank) or with 500 μM MGO (the control group and sample groups) were added for additional 24-h incubation at 37 °C. The cell viability was assayed by the SRB dyes as follows. The MGO-treated SH-SY5Y cells were washed twice with PBS, fixed by 10% trichloroacetic acid, and then stained with 0.2% SRB (dissolved in 1% acetic acid) for 30 min. The unbound dyes were removed by washing the stained cells with 1% acetic acid. The bound dyes in alive cells were extracted by 500 µL of 10 mM Tris-HCl buffer (pH 7.9). The absorbance at 540 nm was measured using an ELISA reader (TECAN, Männedorf, Switzerland).
# AChE [4] = target: T3, AChE (Mus musculus, UniProt P21836); format: in vivo; details: vitisin A or B 40 mg/kg oral; donepezil 5 mg/kg; scopolamine-treated mice
# T3 construct: The isolated whole brain tissue was weighted, and powdered in liquid nitrogen using a mortar and pestle; from tissue; host or cells: whole brain of ICR mice (PBS extract, supernatant)
# T3 sequence (P21836 32-614): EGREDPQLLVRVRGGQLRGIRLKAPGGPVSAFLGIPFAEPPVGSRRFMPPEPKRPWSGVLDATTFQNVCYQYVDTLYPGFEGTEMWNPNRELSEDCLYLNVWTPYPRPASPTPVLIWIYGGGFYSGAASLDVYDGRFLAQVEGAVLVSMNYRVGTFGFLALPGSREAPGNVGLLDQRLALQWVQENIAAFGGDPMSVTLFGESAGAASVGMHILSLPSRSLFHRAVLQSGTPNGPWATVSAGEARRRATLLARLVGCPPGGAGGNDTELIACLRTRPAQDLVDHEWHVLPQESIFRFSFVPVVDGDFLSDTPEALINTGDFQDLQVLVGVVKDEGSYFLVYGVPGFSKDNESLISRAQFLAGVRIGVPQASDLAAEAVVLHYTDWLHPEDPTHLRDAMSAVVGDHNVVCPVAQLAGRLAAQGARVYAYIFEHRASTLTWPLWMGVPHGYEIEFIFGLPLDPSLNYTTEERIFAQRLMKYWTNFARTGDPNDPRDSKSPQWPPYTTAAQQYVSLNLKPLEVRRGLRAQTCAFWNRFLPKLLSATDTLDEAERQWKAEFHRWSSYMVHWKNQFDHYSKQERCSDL
# Procedure: (§1) The isolated whole brain tissue was weighted, and powdered in liquid nitrogen using a mortar and pestle. The proteins in the tissue powders were suspended and extracted by 1 mL, one-fold-diluted PBS. […] The protein contents in tissue extracts were determined by the BCA^TM protein assay kit (Thermo Fisher Scientific Inc.), and BSA was used to plot the standard curve. The AChE activity in the brain extracts was determined following the previous report. […] The malondialdehyde (MDA) levels in the brain extracts was determined using acidic TBA. The 320 μL of 0.5% TBA in 10% trichloroacetic acid was premixed with 80 μL of 5-fold diluted tissue extracts, and then heated at boiling water for 20 min, and then centrifuged at 10,000 rpm, 4 °C for 30 min. […] For determining protein expressions of BDNF and its receptor, TrkB, among brain extracts of the treated mice, the immune stains were performed onto polyvinylidene difluoride (PVDF) membranes (Millipore, Bedford, MA, USA). […] The western chemiluminescent HRP substrate kit (WBKL S0050, Millipore) was used to stain the target protein expressions, which the image system [Syngene GeneGnome5 imaging system (Cambridge, UK)] was used to quantify the image levels of target protein in the immune blots.
# [5] = system: malondialdehyde (MDA) levels; assay: MDA levels in mouse brain tissue extracts (TBA); format: in vivo; details: vitisin A or B 40 mg/kg oral; donepezil 5 mg/kg; scopolamine-treated mice
# Procedure: as §1
# [6] = system: brain-derived neurotrophic factor (BDNF); assay: BDNF protein expression in mouse brain tissue extracts (immune blot); format: in vivo; details: vitisin A or B 40 mg/kg oral; donepezil 5 mg/kg; scopolamine-treated mice
# Procedure: as §1
# [7] = system: tropomyosin receptor kinase B (TrkB); assay: TrkB protein expression in mouse brain tissue extracts (immune blot); format: in vivo; details: vitisin A or B 40 mg/kg oral; donepezil 5 mg/kg; scopolamine-treated mice
# Procedure: as §1
# [8] = system: spontaneously hypertensive rats; parameters: method as in PMID 22762395; details: at the 8-h after a single oral dose of 10 mg/kg; cited from earlier work
# [9] = system: C57BL/6 mice treated with high fat diets; parameters: method as in PMID 26448517; details: oral administration once a day at dose of 25 mg/kg with high fat diets; cited from earlier work
# [10] = system: endothelium-intact thoracic aortic rings of SD rats; parameters: method as in PMID 22762395; details: by increasing NO releases; cited from earlier work
# [11] = compound study: vitisin A or vitisin B 40 mg/kg oral daily day 1-13, donepezil 5 mg/kg day 10-13
# [12] = pretreatment 2.5, 5, 10, and 20 μM for 24 h
# T1 sequence (P22303 32-614): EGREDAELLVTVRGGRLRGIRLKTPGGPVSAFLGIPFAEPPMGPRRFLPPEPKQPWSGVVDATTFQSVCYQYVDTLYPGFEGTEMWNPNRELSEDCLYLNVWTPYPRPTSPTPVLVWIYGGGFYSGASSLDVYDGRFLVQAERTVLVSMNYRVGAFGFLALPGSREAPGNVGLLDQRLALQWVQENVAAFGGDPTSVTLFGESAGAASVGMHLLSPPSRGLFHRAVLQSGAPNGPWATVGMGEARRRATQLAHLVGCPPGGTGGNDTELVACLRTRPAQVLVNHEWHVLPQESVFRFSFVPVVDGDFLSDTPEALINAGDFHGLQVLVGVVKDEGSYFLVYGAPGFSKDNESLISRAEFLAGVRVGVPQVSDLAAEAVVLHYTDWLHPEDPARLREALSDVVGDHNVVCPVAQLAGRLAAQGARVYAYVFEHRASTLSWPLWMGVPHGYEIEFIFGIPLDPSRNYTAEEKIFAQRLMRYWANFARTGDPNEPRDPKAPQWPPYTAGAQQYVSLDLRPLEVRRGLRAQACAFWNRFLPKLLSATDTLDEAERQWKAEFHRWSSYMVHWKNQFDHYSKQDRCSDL
Compound,IC50 (AChE [1]) [µM],"step-through latency in the retention trial compared to the control [3, 11]",IC50 (recombinant human AChE) [µM],IC50 (recombinant human MAO-B) [µM],MGO-treated cell viability compared to the control (SH-SY5Y cells; [12]),also measured
"O=C(OC[C@H]1O[C@@H](OC(=O)c2cc(O)c(O)c(O)c2)[C@H](OC(=O)c2cc(O)c(O)c(O)c2)[C@@H](OC(=O)c2cc(O)c(O)c(O)c2)[C@@H]1O)c1cc(O)c(O)c(O)c1 [1,2,3,6-tetra-O-galloyl-β-D-glucopyranoside]",84.2,,,,,
COc1cc(/C=C/C(=O)CC(=O)/C=C/c2ccc(O)c(O)c2)ccc1O [demethylcurcumin],,,,,,IC50 (AChE [2]): 66.9 µM
"COc1cc2c(cc1OC)C(=O)C(CC1CCN(Cc3ccccc3)CC1)C2 (stereo not drawn) [donepezil, reference compound]",,significant longer time,,,,"step-through latency in the retention trial compared to the control ([3]; extract study: VT-95EE or VT-95EE-EA 200 and 400 mg/kg oral daily day 1-15, donepezil 5 mg/kg day 12-15): significant longer time"
"Oc1ccc([C@H]2c3c(O)cc(O)cc3[C@H]3c4c(cc(O)cc4[C@@H]2[C@H]2c4cc(O)cc5c4[C@H](c4cc(O)cc(O)c4[C@@H]2c2ccc(O)cc2)[C@@H](c2ccc(O)cc2)O5)O[C@@H]3c2ccc(O)cc2)cc1 [hopeaphenol, (+)-hopeaphenol]",,,8.06,88.2,no significant difference,
"Oc1ccc(/C=C/c2cc(O)cc(O)c2)cc1 [resveratrol, reference compound]",,,,41.3,no significant difference,
O=C(OC1O[C@@H]2COC(=O)c3cc(O)c(O)c(O)c3-c3c(cc(O)c(O)c3O)C(=O)O[C@H]2[C@H](OC(=O)c2cc(O)c(O)c(O)c2)[C@H]1OC(=O)c1cc(O)c(O)c(O)c1)c1cc(O)c(O)c(O)c1 (stereo partly drawn) [tellimagrandin II],18.6,,,,,
O=C(O[C@H]1[C@@H]2OC(=O)c3cc(O)c(O)c(O)c3-c3c(cc(O)c(O)c3O)C(=O)OC[C@H]2OC(O)[C@@H]1OC(=O)c1cc(O)c(O)c(O)c1)c1cc(O)c(O)c(O)c1 (stereo partly drawn) [tellimagrandin I],18.4,,,,,
"Oc1ccc([C@H]2c3c(O)cc(O)cc3[C@H]3c4c(cc(O)cc4[C@@H]2c2cc(/C=C/c4cc(O)cc5c4[C@H](c4cc(O)cc(O)c4)[C@@H](c4ccc(O)cc4)O5)ccc2O)O[C@@H]3c2ccc(O)cc2)cc1 [vitisin A, (+)-vitisin A]",,significant longer time,1.29,4.94,significantly to elevate MGO-treated cell viability,AChE activity in brain tissue extracts compared to the control (AChE [4]): lower increase in AChE and MDA levels; MDA levels in brain tissue extracts compared to the control [5]: lower increase in AChE and MDA levels; BDNF protein expression in brain tissue extracts [6]: recover both protein expressions of the reduced BDNF and TrkB; TrkB protein expression in brain tissue extracts [7]: recover both protein expressions of the reduced BDNF and TrkB; greatest reduction in diastolic blood pressure [8]: 25.7 mmHg; greatest reduction in systolic blood pressure [8]: 23.6 mmHg; weight gains [9]: reduce weight gains; effect on phenylephrine-induced tension [10]: vasodilating effects
"Oc1ccc([C@H]2Oc3cc(O)cc(/C=C/c4ccc5c(c4)[C@@H](c4cc(O)cc6c4[C@H](c4cc(O)cc(O)c4)[C@@H](c4ccc(O)cc4)O6)[C@H](c4ccc(O)cc4)O5)c3[C@@H]2c2cc(O)cc(O)c2)cc1 [vitisin B, (−)-vitisin B]",,no significant difference,1.33,1.08,,"MGO-treated cell viability compared to the control (SH-SY5Y cells; pretreatment 5, 10, and 20 μM for 24 h): significantly to elevate MGO-treated cell viability; AChE activity in brain tissue extracts compared to the control (AChE [4]): lower increased AChE activities; MDA levels in brain tissue extracts compared to the control [5]: no effect on reduction of MDA level; BDNF protein expression in brain tissue extracts [6]: recover the reduced BDNF protein expressions"

# From article PMC8869728 (Biomedicines, 2022)
